From US11046668B2, “Small molecule antimicrobials” (Ohio State Innovation Foundation, priority 2016, dated 2021)
≈ marks a conversion by molar mass, not a printed value. Entries after “also recorded” stand apart in the source; their conditions may differ. Marks after values point to notes of the source that are not given here.

Assays:
E. coli K12 [1] = assay: Log reduction test in broth; details: 100 ppm JA-144
Method: (§1) After 24 hours incubation, the broth was centrifuged at 4,000 rpm for 5 min at 23° C. with appropriate aseptic precautions. The supernatant was discarded and the pellet resuspended using 1 ml of sterile peptone water and centrifuged again at 4000 rpm for 5 min. This step was repeated until the supernatant was clear. The pellets were then suspended in 1 ml sterile peptone water, and seven consecutive 10-fold dilutions were made to obtain inoculums ready for the plate counts. For the experimental groups with the small molecule compounds, 0.1 ml of diluted broth (dilution of 10^−2; 10^−4; 10^−6) were inoculated on to the plates. For the control groups, 0.1 ml of diluted broth (dilution of 10^−6 and 10^−7) was added to the plates. They were then incubated at 37° C. aerobically (for E. coli and L. innocua), or 42° C. microaerobically (for C. jejuni and C. coli) for 24 hours, and then colony numbers on each plate counted using a Darkfield Colony Counter manufactured by American Optical (Buffalo, N.Y.).

[2] = test system: colon cells (CCD-112CoN, ATCC); assay: Cytotoxicity assay on normal colon cells (sulforhodamine B); type: cell-based, human; details: for survival rates of colon cells: at 200 μM; for highest concentrations of each compound to cause lysis of human colon cells, converted to ppm: 200 μM converted to ppm; for toxicity against the colon cells: CCD-112CoN, ATCC, data not shown
C. coli [3] = assay: Log reduction test in tapioca film; details: for % Efficacy loss due to incorporation / Log10 CFU/ml reduction: C. coli; for % Efficacy loss due to incorporation: film vs broth; for Log10 CFU/ml reduction / C. coli count after treatment: in tapioca film, JA-144 3.125 ppm, TH-4 12.5 ppm, TH-8 50 ppm, 24 hours; for Log10 CFU/ml reduction: vs control
Method: (§2) The films prepared above were cut into small pieces that were capable of fitting into 1.5 ml micro-tubes. The weight of each film sample ranged from 5 to 15 mg. The micro-tubes were then exposed to UV light for 18 hours to eliminate possible contamination that may have occurred during the cutting and transferring process. […] After adding the proper amount of bacterial culture, the micro-tubes were placed in an incubator aerobically at 37° C. (for E. coli and L. innocua), or microaerobically at 42° C. (for C. jejuni and C. coli), for 24 hours, respectively.
as §1

L. innocua [4] = assay: Log reduction test in broth; details: 100 ppm JA-144
Method: as §1

E. coli K12 [5] = assay: Log reduction test in tapioca film
Method: as §2, §1

C. coli [6] = assay: MIC test in 96 well plate with TTC; type: cell-based; details: Campylobacter coli, 42° C. microaerobically, 24 hours
[7] = test system: Salmonella, E. coli, Listeria and also several commensal and/or probiotic bacteria; assay: Specificity against diverse foodborne pathogens and commensal/probiotic bacteria; type: cell-based; details: tested for specificity against foodborne pathogens and commensal/probiotic bacteria
C. jejuni [8] = assay: Log reduction test in broth; details: JA-144 6.25 ppm, TH-4 25 ppm, TH-8 50 ppm, 24 hours; for Log10 CFU/ml reduction: C. jejuni in broth, vs control; for C. jejuni count after treatment: in broth
Method: as §1

[9] = test system: pathogenic E.coli, Listeria strain, C. jejuni and E. coli bacteria; assay: Efficacy of JA-144 when incorporated in edible films (Example 1); type: cell-based
Source text: As described in primary HTS, we screened re-synthesized two compounds for C. jejuni 81-176 growth inhibition. Both re-synthesized compounds effective inhibiting Campylobacter growth at tested concentrations. […] Where positive control (P CNTL includes Campylobacter culture with known antibiotics and negative control (N CNTL) include Camylobacter culture alone. See FIG. 13. Testing the efficacy of JA-144 when incorporated in edible films against pathogenic E.coli, Listeria strain, C. jejuni and E. coli bacteria. The control (CNTL) include edible film alone. JA-144 was effective in reducing most of the pathogenic bacteria by 4 log. See FIG. 14. A cytotoxicity assay for potent semi-synthetic derivative compounds were performed using normal colon cells and sulfohodamine B methods. See FIG. 15. A cytotoxicity assay was performed for two re-synthesized compounds using normal colon cells and sulforhodamine B methods.

L. innocua [10] = assay: Log reduction test in tapioca film
Method: as §2, §1

C. jejuni [11] = assay: Bacterial growth curves (optical density); details: OD every 4 hours
Method: (§3) For E. coli K12 and L. innocua, the bacterial incubations were followed by measurements of the Optical Density (OD) values every 15 minutes in an automated Sunrise™ Tecan Spectrophotometer (Tecan Co.) during an incubation period of 24 hours at 37° C. For C. jejuni, the incubation experimental design was similar, but the measurement period occurred every 4 hours. From the data collected, comparisons were made with the control samples and statistical analyses were used to determine the significance between the means for all observations.

E. coli K12 [12] = assay: MIC test in 96 well plate with TTC; type: cell-based; details: for antimicrobial activity: starting concentration 50 ppm
L. innocua [13] = assay: MIC test in 96 well plate with TTC; type: cell-based, Listeria innocua; details: for antimicrobial activity: starting concentration 50 ppm
L. innocua [14] = assay: Bacterial growth curves (optical density); details: OD over 24 hours at 37° C.
Method: as §3

C. jejuni [15] = assay: Log reduction test in tapioca film; details: for % Efficacy loss due to incorporation / Log10 CFU/ml reduction: C. jejuni; for % Efficacy loss due to incorporation: film vs broth; for Log10 CFU/ml reduction / C. jejuni count after treatment: in tapioca film, JA-144 6.25 ppm, TH-4 25 ppm, TH-8 50 ppm, 24 hours; for Log10 CFU/ml reduction: vs control
Method: as §2, §1

C. jejuni [16] = assay: MIC test in 96 well plate with TTC; type: cell-based; details: Campylobacter jejuni, 42° C. microaerobically, 24 hours
E. coli K12 [17] = assay: Bacterial growth curves (optical density); details: OD over 24 hours at 37° C.
Method: as §3

C. coli [18] = assay: Log reduction test in broth; details: JA-144 3.125 ppm, TH-4 12.5 ppm, TH-8 50 ppm, 24 hours; for Log10 CFU/ml reduction: C. coli in broth, vs control; for C. coli count after treatment: in broth
Method: as §1

Solubility in water = type: physicochemical
C. jejuni colonization = assay: In vivo effect on C. jejuni colonization in broiler chickens; details: administered orally, in 30% DMSO; three week old broiler chickens
[19] = in tapioca film, 1% w/w JA-144, 24 hours incubation

Compound | survival rates of colon cells [2] [%] | highest concentrations of each compound to cause lysis of human colon cells [2] [µM] | highest concentrations of each compound to cause lysis of human colon cells, converted to ppm [2] [ppm] | % Efficacy loss due to incorporation (C. coli [3]) [%] | Log10 CFU/ml reduction (C. coli [3]) [Log10 CFU/ml] | C. coli count after treatment (C. coli [3]) | MIC (C. coli [6]) [µg/mL] | spectrum of antibacterial activity [7] | Log10 CFU/ml reduction (C. jejuni [8]) [Log10 CFU/ml] | C. jejuni count after treatment (C. jejuni [8]) | concentration that completely inhibited growth (growth curve) (C. jejuni [11]) [ppm] | % Efficacy loss due to incorporation (C. jejuni [15]) [%] | Log10 CFU/ml reduction (C. jejuni [15]) [Log10 CFU/ml] | C. jejuni count after treatment (C. jejuni [15]) | MIC (C. jejuni [16]) [µg/mL] | Log10 CFU/ml reduction (C. coli [18]) [Log10 CFU/ml] | C. coli count after treatment (C. coli [18]) | toxicity against the colon cells [2] | solubility in water (Solubility in water) | in vivo results in a chicken model (C. jejuni colonization) | further results
OCC1(Cc2ccccc2)CCCN(Cc2cc3ccccc3[nH]2)C1 (stereo not shown) [JA-144] | 99 | 200 | 66.9 | 2.03 | 6.14 | 2.93 ± 0.16^a Log10 CFU/ml | 3.12 to 6.25 (≈ 9.34 to 18.7 µM) | broad spectrum effect on other bacteria including E. coli and Listeria | 6.35 | 2.90 ± 0.09^a Log10 CFU/ml | 6.25 | 0.25 | 6.36 | 2.86 ± 0.13^a Log10 CFU/ml | 3.12 to 6.25 (≈ 9.34 to 18.7 µM) | 6.27 | 2.93 ± 0.26^a Log10 CFU/ml | – | – | – | Log10 CFU/ml reduction (E. coli K12 [1]; E. coli K12 in broth, 24 hours, vs control): 5.86 Log10 CFU/ml; E. coli K12 count after treatment (E. coli K12 [1]; in broth, 24 hours incubation): 2.96 ± 0.30^a Log10 CFU/ml; Log10 CFU/ml reduction (L. innocua [4]; L. innocua in broth, 24 hours, vs control): 5.52 Log10 CFU/ml; L. innocua count after treatment (L. innocua [4]; in broth, 24 hours incubation): 3.14 ± 0.11^b Log10 CFU/ml; Percent efficacy loss due to incorporation (E. coli K12 [5]; E. coli K12, film vs broth): 43.48%; Log10 CFU/ml reduction (E. coli K12 [5]; E. coli K12, tapioca film, 1% w/w JA-144, 24 hours, vs control): 3.31 Log10 CFU/ml; E. coli K12 count after treatment (E. coli K12 [5]; [19]): 5.58 ± 0.08^a Log10 CFU/ml; reduction of most of the pathogenic bacteria [9]: 4 log; Percent efficacy loss due to incorporation (L. innocua [10]; L. innocua, film vs broth): 36.42%; Log10 CFU/ml reduction (L. innocua [10]; L. innocua, tapioca film, 1% w/w JA-144, 24 hours, vs control): 3.51 Log10 CFU/ml; L. innocua count after treatment (L. innocua [10]; [19]): 5.22 ± 0.07^b Log10 CFU/ml; MIC (E. coli K12 [12]; Escherichia coli, 37° C. aerobically, 24 hours): 100 µg/mL (≈ 299 µM); MIC (L. innocua [13]; Listeria innocua, 37° C. aerobically, 24 hours): 50 to 100 µg/mL (≈ 149 to 299 µM); concentration that completely inhibited growth (growth curve) (L. innocua [14]): 100 ppm; concentration that completely inhibited growth (growth curve) (E. coli K12 [17]): 100 ppm
O=S(=O)(NCc1ccc(F)cc1)c1ccc(Cl)s1 [TH-4] | 60 | 200 | 61.1 | 29.02 | 4.37 | 5.03 ± 0.07^a Log10 CFU/ml | 12.5 to 25 (≈ 40.9 to 81.8 µM) | specific to C. jejuni and C. coli | 6.37 | 2.78 ± 0.09^a Log10 CFU/ml | 25 | 6.09 | 5.99 | 3.16 ± 0.14^a Log10 CFU/ml | 12.5 to 25 (≈ 40.9 to 81.8 µM) | 6.16 | 3.21 ± 0.12^a Log10 CFU/ml | lacked toxicity | not readiliy soluble in water | promising in vivo results | antimicrobial activity (E. coli K12 [12]): ineffective; also recorded: no antimicrobialactivity; antimicrobial activity (L. innocua [13]): ineffective; also recorded: no antimicrobialactivity
Cc1ccccc1CNS(=O)(=O)c1ccc(Cl)s1 [TH-8] | 79 | 200 | 60.4 | 48.01 | 2.87 | 6.83 ± 0.06^a Log10 CFU/ml | 25 to 50 (≈ 82.8 to 166 µM) | specific to C. jejuni and C. coli | 5.39 | 3.64 ± 0.05^a Log10 CFU/ml | 50 | 25.52 | 4.01 | 5.10 ± 0.07^a Log10 CFU/ml | 25 to 50 (≈ 82.8 to 166 µM) | 5.51 | 4.11 ± 0.05^a Log10 CFU/ml | lacked toxicity | not readiliy soluble in water | promising in vivo results | antimicrobial activity (E. coli K12 [12]): ineffective; also recorded: did not show antimicrobialactivity; antimicrobial activity (L. innocua [13]): ineffective; also recorded: did not show antimicrobialactivity
